{
  "source": "patent US20180008523A1",
  "about": "“ONYCHOMYCOSIS TREATMENT SYSTEM AND METHOD” (DEVICEFARM, INC., priority 2014, published 2018)",
  "test_system": "T. rubrum",
  "assay": "Eradication of T. rubrum through a bovine hoof disk (modified Franz-type diffusion cell), colony count after treatment",
  "assay_type": "cell-based, Trichophyton rubrum",
  "conditions": "3 ul PFD on hoof immediately before 45 minutes of plasma treatment; seven days of incubation; 94% for one hoof, 100% (no colonies) for the other two",
  "source_text": "Eradication of T. rubrum through a bovine hoof using Perfluorode alin (PFD) facilitator and an SMD plasma-generating device.\nThe in vitro test model uses a bovine, hoof disk, a surrogate nail model established in the literature. It is used along with a modified Franz-type diffusion cell to isolate the fungal contaminated side of the hoof in an enclosed chamber that ensures the treatment path is through the hoof barrier. An equal amount of T. rubrum is pipetted onto each hoof disc consisting of a 100 ul suspension. Each hoof disk is then placed fungus side down into the modified Franz cell and sealed with an O-ring. Each hoof is then plasma treated for 45 minutes where the average thickness of hoof disks is 0.35 mm. Eight hoof disks were treated as: • a. Control that is placed directly into the wash tube without any treatment • b. Two PFD-only hooves had 3 ul PFD pipetted directly onto the hoof opposite side from the fungus. This was allowed to sit for 45 minutes in the hood before placing in the wash tube. • c. Two Plasma treatment only hooves get just a 45 minute plasma is treatment (i.e., no PFD). • d. Three Plasma treatment with PFD hooves had 3 ul PFD pipetted directly onto the hoof opposite side from the fungus immediately before applying plasma treatment.\nAfter treatment, each hoof went through a fungal collection protocol consisting of washing, dilution, plating and incubation. […]",
  "note": "“And” between values parts separate entries of the source, which are not always exact repeats. Equal values may be shown once.",
  "data": [
    {"smiles": "FC1(F)C(F)(F)C(F)(F)C2(F)C(F)(F)C(F)(F)C(F)(F)C(F)(F)C2(F)C1(F)F", "note": "(stereo not shown) [PFD, perfluorodecalin]", "values": [
      {"measurement": "colony reduction compared to control", "result": "94% and 100%"}
    ]}
  ]
}
